Experimental data from US20100093613A1, “METHODS FOR IDENTIFYING AGENTS AND THEIR USE FOR THE PREVENTION OR STABILIZATION OF FIBROSIS” (priority 2007, published 2010).

Columns and labels:
[1] = system: Bronchial epithelial cells + Fibroblasts; assay: BioMAP BF4T system (IL-4 + TNF-α), scoring of readout parameters; assay type: cell-based, human; design: key: 1 = modulated in desired direction, 0 = not (−1 if opposite); conditions: for MMP-3 score / PAI-1 score: desired change decrease; for MMP-1 score / uPA score: desired change increase
Method: In the “BF4T” system, bronchial epithelial cells, usually primary human bronchial epithelial cells, are cultured with fibroblasts, usually primary human fibroblasts, in the presence of TNF-α and IL-4. In addition to the factors, stimuli of interest that may be included in the culture medium include TGF-β, IL-5, II-10, IL-9, Tryptase, GM-CSF, II-17, CD40L, Histamine, IgE stimulated Mast Cells, LTB4 stimulated neutrophils, and PBMC stimulated with LPS or SAg.
Human neonatal fibroblasts (HDFn) and normal human bronchial epithelial cells (BrEPI) are used. Human lung fibroblasts (adult or neonatal) could also be used. HDFn are cultured in DMEM/F12 (50/50) from Cellgro, supplemented with LSGS kit (from Cascade Biologics); fetal bovine serum, 2% v/v, hydrocortisone 1 μg/ml, human epidermal growth factor 10 ng/ml, basic fibroblast growth factor 3 ng/ml and heparin 10 μg/ml, and penicillin/streptomycin amphotericin B solution (PSA). BrEPI are cultured in supplemented BEBM medium (Cambrex) at 2×10^4/ml. BrEPI may also be cultured with Bronchial/Tracheal Epithelial Cell Serum-Free Growth Medium (Cell Applications, Inc.) or F12/DMEM supplemented with 10 μg/ml rhu-insulin, 10 μg/ml transferrin, 10 ng/ml epidermal growth factor (EGF), 1 μM ethanolamine, 25 μg/ml aprotinin, 25 μg/ml glucose, 1 μM phosphoethanolamine, 5 μM triiodothyronine, 50 nM selenium, 1 nM hydrocortisone, 1 nM progesterone, 5 μM forskolin, 10 μM heregulin β177-244, 5 μl/ml fibronectin, 4 μl/ml bovine pituitary extract and retinoid acid. HDFn are plated for assays at 3×10^4 cells/ml. After 2 days, media is replaced with BrEPI media containing 10^4 BrEPI cells and cultured for a further 2 days.
Upon reaching confluency, the test agent or buffer control is added and the following are applied: 5 ng/ml of IL-4 and 5 ng/ml TNF-α (BF4T). After another 24 hours incubation (37° C., 5% CO2) the cultures are evaluated for the following parameters: CD90, Keratin 8/18, Eotaxin-3, I-TAC, ICAM-1, EGFR, IL-1α, IL-8, MCP-1, MMP-9, MMP-1, MMP-3, PAI-1, TGF-β3, TIMP-2, uPA, tPA, CD87 and VCAM-1. Additional readouts of interest may include IP-10, Elafin/SKALP, Endothelin-1, Gro-a, CD119, IL-6, GM-CSF, IL-16, FGF, PDGF, CD44, E-cadherin, CD40, IL-15Ralpha, CD1d, CD80, CD86, TARC, eotaxin-1, CD95, MCP-4 and MIP-3a. Other stimuli of interest include: TGFbeta, IL-5, II-10, IL-9, Tryptase, GM-CSF, II-17, CD40L, Histamine, IgE stimulated Mast Cells, LTB4 stimulated neutrophils, and PBMC stimulated with LPS or SAg.
Each screened compound is scored according to its modulation of the selected readout parameters. Compounds receive a positive score (score of 1) or negative score (score of 0) for each readout parameter set forth in Table 2 that is modulated in the desired direction. […] Parameters may be penalized by making the positive score a −1 for parameters where regulation is opposite to the desired direction.
Cell culture. Human umbilical vein endothelial cells (HUVEC) were pooled from multiple donors, cultured according to standard methods, and plated into microtiter plates at passage 4. Cell culture medium for all systems containing HUVEC included hydrocortisone. Coronary artery smooth muscle cells (CASM3C) and umbilical artery smooth muscle cells (HSM3C) were cultured according to standard procedures. Peripheral blood mononuclear cells (PBMC) were prepared from buffy coats from normal human donors according to standard methods. Monocyte-derived macrophages were differentiated in the presence of M-CSF for 7 d according to standard procedures. Human dermal fibroblasts were pooled from 3 donors, cultured according to standard methods, and plated confluent 24 h before stimulation. Cell culture medium for all systems containing fibroblasts and keratinocytes contained low hydrocortisone. Epidermal keratinocytes and bronchial epithelial cells from 3 donors were cultured according to standard procedures and pooled when plated into microtiter plates.

Fibroblasts = assay: BioMAP HDF3CGF system (IL-1β + TNF-α + IFN-γ + EGF + bFGF + PDGFbb), scoring of readout parameters; assay type: cell-based, human; conditions: for PAI-1 score: desired change decrease; for MMP-1 score: desired change increase; for EGFR score: desired no change or increase
Method: In the “HDF-3CGF” system, dermal fibroblast cells, usually primary human dermal fibroblast cells are cultured alone or in the presence of lung epithelial cells, usually primary human lung epithelial cells, with two or more factors selected from: TNF, IL-1, IFNγ, EGF, bFGF+HSPG (heparan sulfate proteoglycan), and PDGFbb. In some embodiments three or more factors are present, four or more, five or more, or all six factors are present.
Human neonatal dermal fibroblasts (HDFn) or adult lung fibroblasts (HDFp) or fibroblasts from tissues such as liver, heart, or kidney are used. Cells are cultured at 3×10^4 cells/ml in DMEM/F12 (50/50) from Cellgro, supplemented with LSGS kit (from Cascade Biologics); fetal bovine serum, 2% v/v, hydrocortisone 100 nM, human epidermal growth factor 10 ng/ml, basic fibroblast growth factor 3 ng/ml and heparin 10 μg/ml, and penicillin/streptomycin amphotericin B solution (PSA), until confluency. Medium is replaced with DMEM/F12 with only penicillin/streptomycin amphotericin B solution (PSA), then 24 hours later, the following are applied:
After another 24, 48 or 72 hours incubation (37° C., 5% CO2) the cultures are evaluated for the following parameters: ICAM, VCAM, CD40, CD90, IP-10, MCP-1, Collagen I, Mig, m-CSF, TIMP-2, PAI-I, IL-8, Collagen III, HLA-DR, MMP-1, MMP-9, proliferation, TGF-b1, eotaxin-3, decorin, alpha-SMC, MLCK, I-TAC, EGFR, TIMP-1.
Cell culture. […] Human dermal fibroblasts were pooled from 3 donors, cultured according to standard methods, and plated confluent 24 h before stimulation. Cell culture medium for all systems containing fibroblasts and keratinocytes contained low hydrocortisone. […] Concentrations/amounts of agents added to confluent microtiter plates to build each system: cytokines (IL-1β, 1 ng/ml; TNF-α, 5 ng/ml; IFN-γ, 20 ng/ml; IL-4, 5 ng/ml), activators (SAg, 20 ng/ml; histamine, 10 μM; zymosan, 10 μg/ml; or LPS, 2 ng/ml), growth factors (TGF-β, 5 ng/ml; EGF, bFGF, and PDGF-BB, 10 ng/ml), and PBMC (7.5×10^4 cells/well) or macrophages (3.5×10^4 cells/well).
Compounds were prepared in the solvent directed, added 1 hr before stimulation of the cells, and were present during the 24 hr stimulation period for the measurement of parameters listed in Table 2. For proliferation, compounds added 1 hr before stimulation of the cells with cytokines, and were present during the 48 to 72 hr assay. If prepared in DMSO, the final concentration of solvent was 0.1% or less.

Compound | MMP-3 score [1] | PAI-1 score [1] | MMP-1 score [1] | uPA score [1] | PAI-1 score (Fibroblasts) | MMP-1 score (Fibroblasts) | EGFR score (Fibroblasts)
Cn1cnc([N+](=O)[O-])c1Sc1ncnc2nc[nH]c12 [Azathioprine] | 0 | 0 | 0 | 0 | 0 | 0 | 0
CCc1oc2ccccc2c1C(=O)c1cc(Br)c(O)c(Br)c1 [Benzbromarone] | 1 | 0 | 0 | 0 | 1 | 0 | 0
C=C1CC[C@H](O)C/C1=C/C=C1\CCC[C@]2(C)[C@@H]([C@H](C)/C=C/[C@H](C)C(C)C)CC[C@@H]12 [Calciferol] | 0 | 0 | 0 | 1 | 1 | 0 | 0
COc1cc2c(c(OC)c1OC)-c1ccc(OC)c(=O)cc1[C@@H](NC(C)=O)CC2 [Colchicine] | 0 | 0 | 0 | 0 | 0 | 0 | 0
O=C(O)c1ccccc1Nc1cccc(C(F)(F)F)c1 [Flufenamic Acid] | 0 | 1 | 0 | 0 | 0 | 0 | 0
Fc1ccc(C(OCCN2CCN(CCCc3ccccc3)CC2)c2ccc(F)cc2)cc1 [GBR 12909] | 0 | 0 | 0 | 0 | 1 | 0 | 0
CCCCN(CCCC)CCC(O)c1cc2c(Cl)cc(Cl)cc2c2cc(C(F)(F)F)ccc12 (stereo not drawn) [Halofantrine] | 0 | 1 | 0 | 0 | 1 | 0 | 0
CCN(CC)CCNc1ccc(CO)c2sc3ccccc3c(=O)c12 [Hycanthone] | 0 | 0 | 0 | 0 | 1 | 0 | 0
O=c1cc(-c2ccc(O)c(O)c2)oc2cc(O)cc(O)c12 [Luteolin] | 0 | 1 | 0 | 0 | 1 | 0 | 0
COC(=O)Nc1nc2ccc(SC(C)C)cc2[nH]1 [Methiazole] | 1 | 1 | 0 | 0 | 1 | 0 | 0
C[C@]12C=CC(=O)C=C1CC[C@@H]1[C@@H]2[C@@H](O)C[C@@]2(C)[C@H]1CC[C@]2(O)C(=O)CO [Prednisolone] | 0 | 0 | 0 | 0 | 0 | 0 | 0
Cc1c(Cl)cccc1Nc1ccccc1C(=O)O [Tolfenamic Acid] | 1 | 1 | 0 | 0 | 0 | 0 | 0
COc1cc(-c2ccc(=O)[nH]n2)ccc1OC(F)F [Zardaverine] | 0 | 1 | 0 | 0 | 1 | 0 | 0
(R)-(−)-Apomorphine | 0 | 0 | 0 | 0 | 1 | 0 | 0
Antimycin A | 0 | 0 | 0 | 1 | 1 | 0 | 0
